Results from patent US8017350B2, “Glimepiride- and insulin-induced glycosylphosphatidylinositol-specific phospholipase C regulation” (Sanofi-Aventis Deutschland GmbH, priority 2004, dated 2011).

Columns and labels:
[1] = system: cabbage PLD; assay: PLD assay ([14C]phosphatidylcholine); type: biochemical; settings: 50 μM
Description: Hormone-sensitive lipase (HSL) and lipoprotein lipase (LPL) were measured using a radiolabeled triolein droplet emulsion as described in “Vertesy et al., (2002) Journal Antibiotics 55:480-494”. Pancreatic lipase (PL) was determined by incubation of 0.25 mmol tributyrin in 2 ml of 5 mM Tris/HCl (pH 6.5), 6 mM sodium taurodeoxycholate, 150 mM NaCl, 1 mM CaCl2 with porcine PL and colipase in the same buffer using a recording pH stat (stirring at 1000 rpm at 25° C.) with the pH adjusted to 6.5. PC-PLC was assayed by incubation of 0.2 ml of 10 mM dipalmitoyllecithin, 0.1 ml of 10 mM SDC and 0.1 ml of 0.03 M CaCl2 with bacterial PC-PLC (in 50 mM Tris/HCl, pH 7.5, 0.1% BSA) for 10 min at 37° C. The reaction was terminated by addition of 0.1 ml of 50% TCA and subsequently of 2.5 ml of […]. After centrifugation (1500×g, 15 min), 0.2-ml portions of the upper methanol/water phase (˜1.33 ml) were removed, supplemented with 0.5 ml of 60% HClO4, then heated at 170° C. for 1 h and finally analyzed for inorganic phosphate. Mammalian PI-PLC was measured by incubation of 0.1 ml of 10 mM PI, 0.1 ml of 0.8% sodium deoxycholate, 0.1% BSA, 0.2 ml of 100 mM sodium borate (pH 7.5) and rat liver PI-PLC for 20 min at 37° C. The reaction was terminated and further processed as described for the PC-PLC. […] Radioactive phosphatidic acid was detected by phosphorimaging. […]

[2] = system: isolated rat adipocytes; assay: glucose transport assay (2-deoxy-D-[3H]glucose); type: cell-based; settings: 50 μM
Description: Glucose transport was determined as described in “Müller, G. et al., (1994) J. Cell Biol. 126: 1267-1276” by incubation of 10,000-20,000 washed adipocytes with 2-deoxy-D[2,6-^3H]glucose at 50 μM final conc. (0.33 μCi/ml) in 50-μl portions for 20 min at 37° C. in the absence or presence of 20 μM cytochalasin B.
Table 3: Isolated rat adipocytes were incubated in the presence of methyl-β-cyclodextrin (m-β-CD, 10 mM, 50 min), CBDP (300 μM, electroporation, followed by washing and subsequent incubation for 30 min), PIG41 (10 μM, 15 min), sodium orthovanadate (1 mM, 15 min), trypsin (10 μg/ml, 15 min followed by treatment with 0.5 M NaCl and subsequent washing) and N-ethylmaleimide (1 mM, 5 min followed by addition of DTT). After addition of GPI-2350 (50 μM final conc.) to one half of the adipocyte suspension and further incubation (60 min, 37° C.), portions of the cells were assayed for 5′-Nuc activity in the isolated IcDIGs. The increase in 5′-Nuc during the basal incubation was set at 100 arb. units. Other portions of the cells (after 15 min incubation) were assayed for glucose transport which was set at 100 arb. units for the basal incubation. Means+SD of at least 3 independent cell incubations with activity measurements in triplicate each are given.
FIG. 8: Effect of GPI-2350 on the glimepiride/insulin-induced metabolic activity. Isolated rat adipocytes were treated (5 min, 37° C.) without or with GPI-2350 (Panel A, 50 μM; Panel B, increasing conc.; Panel C, 5 μM, 50 μM) and then incubated (15 min, 37° C.) in the absence or presence of insulin (Ins, 10 nM) or glimepiride (Gli, 20 μM or increasing conc.) as indicated. The adipocytes were then assayed for glucose transport and isoproterenol-induced lipolysis. The activity is given relative to the absence of GPI-2350 in the control reaction (Panels A, basal) or in the insulin- and glimepiride-stimulated state (Panels B and C, set at 100). Means+SD of at least 5 independent cell incubations with activity measurements in triplicate each are given.

## CCCCCCCCCCCCP1(=O)O[C@@H]2[C@H](O)[C@@H](O)[C@H](O)[C@@H](O)[C@@H]2O1 (some centres unmarked) [GPI-2350, myo-inositol-1,2-cyclo-dodecylphosphonic acid]
[1]
  effect on PLD: not significantly affected
[2]
  effect on stimulation of glucose transport in response to glimepiride: almost complete blockade
